Experimental data as given in PubChem BioAssay AID1963975 (Molecular Pharmacology Branch, DTP, NCI, 2024).

Test system: 624824-186-R-J2-PDC multicell spheroids, viability
Test: Anticancer human tumor 624824-186-R-J2-PDC patient-derived colon adenocarcinoma cell line growth inhibition [PI3K]
Conditions: for IC50: curve of first compound; for viability, T/C: stronger effect = lower value
How it was run: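 Three cell types, namely tumor cells, endothelial cells and mesenchymal stem cells, formed each spheroid. Combinations with four PI3K inhibitors were screened at clinically achievable concentrations decreasing by half-log, and spheroid viability was recorded.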

[1] = second compound 0.00316 µM, first compound 0.0316 µM
[2] = second compound 0.00316 µM, first compound 0.1 µM
[3] = second compound 0.00316 µM, first compound 0.316 µM
[4] = second compound 0.00316 µM, first compound 1 µM
[5] = second compound 0.00316 µM, first compound 3.16 µM
[6] = second compound 0.00316 µM, first compound 10 µM
[7] = second compound 0.01 µM, first compound 0.0316 µM
[8] = second compound 0.01 µM, first compound 0.1 µM
[9] = second compound 0.01 µM, first compound 0.316 µM
[10] = second compound 0.01 µM, first compound 1 µM
[11] = second compound 0.01 µM, first compound 3.16 µM
[12] = second compound 0.01 µM, first compound 10 µM
[13] = second compound 0.0316 µM, first compound 0.0316 µM
[14] = second compound 0.0316 µM, first compound 0.1 µM
[15] = second compound 0.0316 µM, first compound 0.316 µM
[16] = second compound 0.0316 µM, first compound 1 µM
[17] = second compound 0.0316 µM, first compound 3.16 µM
[18] = second compound 0.0316 µM, first compound 10 µM
[19] = second compound 0.1 µM, first compound 0.0316 µM
[20] = second compound 0.1 µM, first compound 0.1 µM
[21] = second compound 0.1 µM, first compound 0.316 µM
[22] = second compound 0.1 µM, first compound 1 µM
[23] = second compound 0.1 µM, first compound 3.16 µM
[24] = second compound 0.1 µM, first compound 10 µM
[25] = second compound 0.316 µM, first compound 0.0316 µM
[26] = second compound 0.316 µM, first compound 0.1 µM
[27] = second compound 0.316 µM, first compound 0.316 µM
[28] = second compound 0.316 µM, first compound 1 µM
[29] = second compound 0.316 µM, first compound 3.16 µM
[30] = second compound 0.316 µM, first compound 10 µM
[31] = second compound 1 µM, first compound 0.0316 µM
[32] = second compound 1 µM, first compound 0.1 µM
[33] = second compound 1 µM, first compound 0.316 µM
[34] = second compound 1 µM, first compound 1 µM
[35] = second compound 1 µM, first compound 3.16 µM
[36] = second compound 1 µM, first compound 10 µM
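Also: spheroids exposed to agents for 7 days before viability read.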
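For viability, T/C in this document: 100% = DMSO vehicle treated spheroids.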

Structure (SMILES): C#Cc1c(F)ccc2cc(O)cc(-c3ncc4c(N5CC6CCC(C5)N6)nc(OCC56CCCN5CC(F)C6)nc4c3F)c12 (stereo not drawn) + COc1c(OCCCN2CCOCC2)ccc2c3n(c(=NC(=O)c4cnc(N)nc4)nc12)CCN3
- IC50 (second compound 0.00316 µM): > 10 µM
- IC50 (second compound 0.01 µM): > 10 µM
- IC50 (second compound 0.0316 µM): > 10 µM
- IC50 (second compound 0.1 µM): > 10 µM
- IC50 (second compound 0.316 µM): > 10 µM
- IC50 (second compound 1 µM): 6.78 µM
- viability, T/C [1]: 89.2%
- viability, T/C [2]: 101%
- viability, T/C [3]: 73.6%
- viability, T/C [4]: 91.6%
- viability, T/C [5]: 87.9%
- viability, T/C [6]: 80.8%
- viability, T/C [7]: 92.8%
- viability, T/C [8]: 90.2%
- viability, T/C [9]: 89.8%
- viability, T/C [10]: 78.5%
- viability, T/C [11]: 89.9%
- viability, T/C [12]: 95.4%
- viability, T/C [13]: 94.3%
- viability, T/C [14]: 77.2%
- viability, T/C [15]: 92.6%
- viability, T/C [16]: 77.5%
- viability, T/C [17]: 80.6%
- viability, T/C [18]: 81.5%
- viability, T/C [19]: 78.8%
- viability, T/C [20]: 76.9%
- viability, T/C [21]: 66.2%
- viability, T/C [22]: 68.3%
- viability, T/C [23]: 72.8%
- viability, T/C [24]: 72.2%
- viability, T/C [25]: 72.6%
- viability, T/C [26]: 59.4%
- viability, T/C [27]: 65%
- viability, T/C [28]: 60.4%
- viability, T/C [29]: 58.5%
- viability, T/C [30]: 56.4%
- viability, T/C [31]: 60.1%
- viability, T/C [32]: 59.9%
- viability, T/C [33]: 52.9%
- viability, T/C [34]: 56%
- viability, T/C [35]: 50.8%
- viability, T/C [36]: 49.3%

Structure (SMILES): CC(Cn1ccc(-c2ccc(C#N)c(Cl)c2)n1)NC(=O)c1cc(C(C)O)[nH]n1 (stereo not drawn) + COc1c(OCCCN2CCOCC2)ccc2c3n(c(=NC(=O)c4cnc(N)nc4)nc12)CCN3
- IC50 (second compound 0.00316 µM): > 10 µM
- IC50 (second compound 0.01 µM): > 10 µM
- IC50 (second compound 0.0316 µM): > 10 µM
- IC50 (second compound 0.1 µM): > 10 µM
- IC50 (second compound 0.316 µM): > 10 µM
- IC50 (second compound 1 µM): > 10 µM
- viability, T/C [1]: 86.3%
- viability, T/C [2]: 79%
- viability, T/C [3]: 106%
- viability, T/C [4]: 98.5%
- viability, T/C [5]: 71.5%
- viability, T/C [6]: 117%
- viability, T/C [7]: 87.1%
- viability, T/C [8]: 89.7%
- viability, T/C [9]: 98%
- viability, T/C [10]: 84.8%
- viability, T/C [11]: 99.6%
- viability, T/C [12]: 114%
- viability, T/C [13]: 102%
- viability, T/C [14]: 88.1%
- viability, T/C [15]: 90.7%
- viability, T/C [16]: 84.5%
- viability, T/C [17]: 92%
- viability, T/C [18]: 97.2%
- viability, T/C [19]: 76.9%
- viability, T/C [20]: 73.2%
- viability, T/C [21]: 71.6%
- viability, T/C [22]: 76.6%
- viability, T/C [23]: 85.1%
- viability, T/C [24]: 80%
- viability, T/C [25]: 61.4%
- viability, T/C [26]: 70.2%
- viability, T/C [27]: 55.3%
- viability, T/C [28]: 62.2%
- viability, T/C [29]: 68.1%
- viability, T/C [30]: 63.8%
- viability, T/C [31]: 63%
- viability, T/C [32]: 58.6%
- viability, T/C [33]: 62.7%
- viability, T/C [34]: 63.6%
- viability, T/C [35]: 63.4%
- viability, T/C [36]: 59%

Structure (SMILES): CC1(C)CCC(Nc2ncc(C(F)(F)F)c(-c3c[nH]c4c(P(C)(C)=O)c(C#N)ccc34)n2)CN1 (stereo not drawn) + COc1c(OCCCN2CCOCC2)ccc2c3n(c(=NC(=O)c4cnc(N)nc4)nc12)CCN3
- IC50 (second compound 0.00316 µM): 3.5 µM
- IC50 (second compound 0.01 µM): 3.48 µM
- IC50 (second compound 0.0316 µM): 2.23 µM
- IC50 (second compound 0.1 µM): 1.45 µM
- IC50 (second compound 0.316 µM): 0.28 µM
- IC50 (second compound 1 µM): < 0.0316 µM
- viability, T/C [1]: 78.3%
- viability, T/C [2]: 104%
- viability, T/C [3]: 92.2%
- viability, T/C [4]: 89.3%
- viability, T/C [5]: 54.4%
- viability, T/C [6]: 4.77%
- viability, T/C [7]: 73.5%
- viability, T/C [8]: 76.8%
- viability, T/C [9]: 94.8%
- viability, T/C [10]: 83.1%
- viability, T/C [11]: 54.2%
- viability, T/C [12]: 4.78%
- viability, T/C [13]: 82.5%
- viability, T/C [14]: 75.9%
- viability, T/C [15]: 71.5%
- viability, T/C [16]: 61.7%
- viability, T/C [17]: 46.9%
- viability, T/C [18]: 3.67%
- viability, T/C [19]: 63.6%
- viability, T/C [20]: 56.9%
- viability, T/C [21]: 55.1%
- viability, T/C [22]: 49.1%
- viability, T/C [23]: 45.6%
- viability, T/C [24]: 4.59%
- viability, T/C [25]: 54%
- viability, T/C [26]: 51.7%
- viability, T/C [27]: 47.9%
- viability, T/C [28]: 43.8%
- viability, T/C [29]: 35.4%
- viability, T/C [30]: 2.98%
- viability, T/C [31]: 43%
- viability, T/C [32]: 44.8%
- viability, T/C [33]: 42.7%
- viability, T/C [34]: 37.2%
- viability, T/C [35]: 32.5%
- viability, T/C [36]: 2.59%

Structure (SMILES): Cn1cnc2c(F)c(Nc3ccc(Br)cc3Cl)c(C(=O)NOCCO)cc21 + Cc1nc(NC(=O)N2CCCC2C(N)=O)sc1-c1ccnc(C(C)(C)C(F)(F)F)c1
- IC50 (second compound 0.0316 µM): > 3 µM
- IC50 (second compound 0.1 µM): > 3 µM
- IC50 (second compound 0.316 µM): > 3 µM
- IC50 (second compound 1 µM): > 3 µM
- IC50 (second compound 3.16 µM): 0.69 µM
- IC50 (second compound 10 µM): 0.0836 µM
- viability, T/C (second compound 0.0316 µM, first compound 0.00949 µM): 90.2%
- viability, T/C (second compound 0.0316 µM, first compound 0.03 µM): 68.3%
- viability, T/C (second compound 0.0316 µM, first compound 0.0949 µM): 78%
- viability, T/C (second compound 0.0316 µM, first compound 0.3 µM): 91.2%
- viability, T/C (second compound 0.0316 µM, first compound 0.949 µM): 89.4%
- viability, T/C (second compound 0.0316 µM, first compound 3 µM): 76.4%
- viability, T/C (second compound 0.1 µM, first compound 0.00949 µM): 82.8%
- viability, T/C (second compound 0.1 µM, first compound 0.03 µM): 79.7%
- viability, T/C (second compound 0.1 µM, first compound 0.0949 µM): 72.9%
- viability, T/C (second compound 0.1 µM, first compound 0.3 µM): 78.5%
- viability, T/C (second compound 0.1 µM, first compound 0.949 µM): 83.1%
- viability, T/C (second compound 0.1 µM, first compound 3 µM): 77.4%
- viability, T/C (second compound 0.316 µM, first compound 0.00949 µM): 86.7%
- viability, T/C (second compound 0.316 µM, first compound 0.03 µM): 71.8%
- viability, T/C (second compound 0.316 µM, first compound 0.0949 µM): 74.3%
- viability, T/C (second compound 0.316 µM, first compound 0.3 µM): 70.5%
- viability, T/C (second compound 0.316 µM, first compound 0.949 µM): 77.7%
- viability, T/C (second compound 0.316 µM, first compound 3 µM): 66.7%
- viability, T/C (second compound 1 µM, first compound 0.00949 µM): 90.3%
- viability, T/C (second compound 1 µM, first compound 0.03 µM): 61.8%
- viability, T/C (second compound 1 µM, first compound 0.0949 µM): 66.6%
- viability, T/C (second compound 1 µM, first compound 0.3 µM): 62.7%
- viability, T/C (second compound 1 µM, first compound 0.949 µM): 77.5%
- viability, T/C (second compound 1 µM, first compound 3 µM): 51.5%
- viability, T/C (second compound 3.16 µM, first compound 0.00949 µM): 82.2%
- viability, T/C (second compound 3.16 µM, first compound 0.03 µM): 73.8%
- viability, T/C (second compound 3.16 µM, first compound 0.0949 µM): 79.6%
- viability, T/C (second compound 3.16 µM, first compound 0.3 µM): 63.8%
- viability, T/C (second compound 3.16 µM, first compound 0.949 µM): 44.6%
- viability, T/C (second compound 3.16 µM, first compound 3 µM): 22.2%
- viability, T/C (second compound 10 µM, first compound 0.00949 µM): 63%
- viability, T/C (second compound 10 µM, first compound 0.03 µM): 58.4%
- viability, T/C (second compound 10 µM, first compound 0.0949 µM): 43.1%
- viability, T/C (second compound 10 µM, first compound 0.3 µM): 44.5%
- viability, T/C (second compound 10 µM, first compound 0.949 µM): 17.7%
- viability, T/C (second compound 10 µM, first compound 3 µM): 1.93%
